Data: PubChem BioAssay (NCI)
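Five concentrations, 48 hours, 96-well plates. The concentration for 50% growth inhibition is given as GI50. TGI: total growth inhibition.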

Experiments:
Test in all cases: NCI tumour cell line growth inhibition, 48 h
MALME-3M melanoma = tested on: MALME-3M melanoma
LOX IMVI melanoma = tested on: LOX IMVI melanoma
IGROV1 ovarian = tested on: IGROV1 ovarian
CCRF-CEM leukemia = tested on: CCRF-CEM leukemia
SNB-19 CNS = tested on: SNB-19 CNS
RPMI-8226 leukemia = tested on: RPMI-8226 leukemia
NCI-H522 lung = tested on: NCI-H522 lung
UACC-62 melanoma = tested on: UACC-62 melanoma
HOP-62 NSCLC = tested on: HOP-62 NSCLC
COLO 205 colon = tested on: COLO 205 colon

SMILES | TGI (MALME-3M melanoma) | TGI (LOX IMVI melanoma) | TGI (IGROV1 ovarian) | TGI (CCRF-CEM leukemia) | TGI (SNB-19 CNS) | TGI (RPMI-8226 leukemia) | TGI (NCI-H522 lung) | TGI (UACC-62 melanoma) | TGI (HOP-62 NSCLC) | TGI (COLO 205 colon) | GI50 (MALME-3M melanoma) | GI50 (LOX IMVI melanoma) | GI50 (IGROV1 ovarian) | GI50 (CCRF-CEM leukemia) | GI50 (SNB-19 CNS) | GI50 (RPMI-8226 leukemia) | GI50 (NCI-H522 lung) | GI50 (UACC-62 melanoma) | GI50 (HOP-62 NSCLC) | GI50 (COLO 205 colon)
Cc1cccc(C)c1NC(=O)C1C(=O)N(c2c(C)cccc2C)C(=O)/C1=N\N (stereo not given) | > 100 µM | > 100 µM | > 100 µM | > 100 µM | > 100 µM | > 100 µM | > 100 µM | > 100 µM | > 100 µM | > 100 µM |  |  |  |  |  |  |  |  |  | 
N=c1ccn(O)cc1/C=C1/C(=O)Nc2ccccc21 | > 100 µM | > 100 µM | > 100 µM | > 100 µM | > 100 µM | > 100 µM | > 100 µM | > 100 µM | > 100 µM | > 100 µM | > 100 µM | > 100 µM | > 100 µM | > 100 µM | > 100 µM | > 100 µM | > 100 µM | > 100 µM | > 100 µM | > 100 µM
CCOC(=O)c1cc2c(cc1Cl)SC(N(c1ccc(OC)cc1)S(=O)(=O)c1ccc(Cl)cc1)=NS2(=O)=O | > 100 µM | 38.3 µM | > 100 µM | > 100 µM | > 100 µM | > 100 µM | 64.8 µM | > 100 µM | > 100 µM | 48.7 µM | 28.1 µM | 18.7 µM | 49.6 µM | 0.666 µM | 36.8 µM | 31.3 µM | 21 µM | 34.6 µM | > 100 µM | 18.4 µM
O=C1C=CC(=Nc2cc(Br)c(O)c(Br)c2)C=C1 | > 100 µM | 66.6 µM | 68 µM | > 100 µM | > 100 µM | > 100 µM | 28.8 µM | 93.2 µM | 76.1 µM | 52 µM | 18.4 µM | 21.6 µM | 22.7 µM | 3.53 µM | 44.2 µM | 11.9 µM | 3.96 µM | 25.6 µM | 28.4 µM | 20 µM
[N-]=[N+]=NCCCCCC(=O)OC(C(=O)c1ccccc1)c1cccc(OCC(=O)NCCOCCOCCNC(=O)CCCC[C@@H]2SC[C@@H]3NC(=O)N[C@@H]32)c1 (stereo not given in full) | > 100 µM | 44.5 µM | > 100 µM | > 100 µM | > 100 µM | > 100 µM | > 100 µM | > 100 µM | > 100 µM | > 100 µM | > 100 µM | 18.5 µM | > 100 µM | 52.2 µM | > 100 µM | 29.3 µM | > 100 µM | > 100 µM | > 100 µM | > 100 µM
O=C(COc1cc(O)c2c(=O)cc(-c3ccccc3)oc2c1)Nc1ccccc1C(F)(F)F | > 100 µM | 22.6 µM | 15.9 µM | 64.1 µM | 21.7 µM | > 100 µM | > 100 µM | > 100 µM | 8.19 µM | > 100 µM | 3.17 µM | 4.74 µM | 3.61 µM | 19.6 µM | 4.17 µM | 7.03 µM | 6.77 µM | 6.58 µM | 2.62 µM | 8.04 µM
Cc1cc(N2CCOCC2)nc(N[C@@H]2CCC[C@H](Nc3ccnc4cc(Cl)ccc34)C2)n1 | 3.67 µM | 3.3 µM | 6.6 µM | 9.25 µM | 12.2 µM | 5.25 µM | 6.23 µM | 3.43 µM | 4.36 µM | 3.33 µM | 1.95 µM | 1.71 µM | 2.23 µM | 3.31 µM | 3.35 µM | 2.09 µM | 2.97 µM | 1.82 µM | 1.73 µM | 1.68 µM
NCCCCCCCn1c2c(c3ccccc3c1=O)C(=O)c1ccccc1-2 | 4.01 µM | 2.76 µM | 3.58 µM | 2.19 µM | 4.82 µM | 2.62 µM | 3.46 µM | 3.85 µM | 2.73 µM | 5.15 µM | 1.98 µM | 1.33 µM | 1.43 µM | 0.648 µM | 1.86 µM | 1.09 µM | 1.58 µM | 2.01 µM | 1.36 µM | 2.07 µM
Oc1ccc(-c2nc3ccccc3s2)cc1CN(Cc1ccccn1)Cc1ccccn1 | 7.77 µM | 10.7 µM | 15.8 µM | > 100 µM | 20.8 µM | 16.6 µM | 14.2 µM | 6.66 µM | 32.1 µM | 15.2 µM | 1.8 µM | 1.21 µM | 1.96 µM | 1.09 µM | 1.51 µM | 2.08 µM | 2.83 µM | 1.24 µM | 0.34 µM | 3.4 µM
Clc1ccc(-c2c3c(nn2-c2ccccn2)CCc2ccccc2-3)cc1Cl | > 100 µM | > 100 µM | > 100 µM | > 100 µM | > 100 µM | > 100 µM | > 100 µM | > 100 µM | > 100 µM | > 100 µM | 47.9 µM | > 100 µM | > 100 µM | > 100 µM | > 100 µM | 31.4 µM | > 100 µM | > 100 µM | 50.2 µM | > 100 µM
O=c1cc(-c2cccc3c2Sc2ccccc2S3)oc(N2CCOCC2)c1 | 24.4 µM | 37.4 µM | 17.7 µM | > 55.8 µM | 33.6 µM | 43.4 µM | 22.6 µM | 22.1 µM | 23 µM | 26.3 µM | 8.81 µM | 11.4 µM | 4.08 µM | 21.1 µM | 13.9 µM | 9.83 µM | 8.01 µM | 6.55 µM | 10.9 µM | 11.5 µM
COc1cccc(NC(=O)c2sc3nc(C)c(C(O)c4ccccc4)cc3c2N)c1 (stereo not given) | 27.4 µM | 18.6 µM | 16.8 µM | > 79.7 µM | 74.6 µM | 12.3 µM | 14.1 µM | 17.3 µM | 26.2 µM | 13.6 µM | 0.58 µM | 0.264 µM | 0.441 µM | 0.219 µM | 0.467 µM | 0.357 µM | 0.308 µM | 0.503 µM | 0.481 µM | 2.42 µM
Cc1ccc(NC(=O)CC2Sc3ccccc3NC2=O)c(C)c1 (stereo not given) | 47.7 µM | > 100 µM | > 100 µM | 78.4 µM | 30.3 µM | 43.9 µM | 30.4 µM | 48.9 µM | 34 µM | 38.7 µM |  |  |  |  |  |  |  |  |  | 
CN(Cc1ccccc1)c1ccc(CO)c(Cl)c1 | > 100 µM | > 100 µM | 3.01 µM | > 100 µM | > 100 µM | > 96.2 µM | > 100 µM | 3.93 µM | > 58.6 µM | 22.5 µM | 79 µM | 45.8 µM | 0.467 µM | 32.5 µM | > 84.3 µM | 15.4 µM | 29 µM | 0.384 µM | 6.41 µM | 7.19 µM
O=C(c1ccccc1)C1OC12C(=O)Nc1c(Cl)cc(Cl)cc12 (stereo not given) | > 100 µM | > 61.7 µM | > 100 µM | 27.2 µM | > 100 µM | > 100 µM | 34.6 µM | > 100 µM | > 100 µM | 41 µM |  |  |  |  |  |  |  |  |  | 
Cc1csc(/C=C/C(=O)c2nnn(-c3ccnc4c(C(F)(F)F)cccc34)c2C)c1 | > 100 µM | > 100 µM | > 100 µM | > 100 µM | > 100 µM | > 100 µM | > 100 µM | > 100 µM | > 100 µM | > 100 µM | > 100 µM | 49.1 µM | > 100 µM | 21.9 µM | 72.8 µM | 23.6 µM | 26.4 µM | 62.2 µM | > 100 µM | 41.3 µM
